The test system of experiment [1] is Cell membrane. Briefly: Disruption of cell membrane in methicilin-resistant Staphylococcus aureus ATCC 43300 assessed as appearance of wrinkled cell membrane by scanning electron microscopic analysis. Format: cell membranes.
For experiment [2], the system named is Staphylococcus aureus. In words: Bactericidal activity against methicillin-resistant Staphylococcus aureus ATCC 43300 assessed as bacterial killing at 16 microg/ml measured after 4 hrs by time-kill kinetics analysis relative to control. The class given is functional. The settings on record: dose 16 µg/ml.
Experiment [3] relates to Staphylococcus aureus. In words: Bacteriostatic activity against methicillin-resistant Staphylococcus aureus ATCC 43300 assessed as inhibition of bacterial growth at 1 times of MIC measured after 24 hrs by time-kill kinetic analysis. The class given is functional, organism-based.

Calls of active or inactive are those of the source. The rule behind the calls is not given here.

Regarding `CCCCN(CCCC)CCCNCCCOc1c(C(C)=O)ccc2c1C=CC(C)(CCC=C(C)C)O2` (stereo not drawn), the outcome in experiment [1] and in experiment [3] was Active. Further, the Activity result in experiment [2] is on record as “>=99.9%”.

The record behind these values is ChEMBL document CHEMBL5614413, “Design, synthesis and biological evaluation of amphiphilic benzopyran derivatives as potent antibacterial agents against multidrug-resistant bacteria” (Eur J Med Chem, 2024).
